The results in this text go back to PubChem BioAssay AID256 (DTP/NCI, 2004).

Where “and” joins values, the source holds several entries; their conditions need not be identical. Identical values can stand only once. Toxic doses and inconclusive results are not listed.

The assay has as its system CD2F1 mice, L1210 leukemia ip, survival T/C. Kind of assay: NCI In Vivo Anticancer Drug Screen. Data for tumor model L1210 Leukemia (intraperitoneal) in CD2F1 (CDF1) mice. Conditions: higher = longer survival. A digest of the protocol:
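Activity against a transplanted murine tumor was judged by comparing the compound group with a vehicle group. The outcome in the treated animals was divided by that in the controls.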

[1] abbreviates: endpoint: mean survival time, dose: 100.0 mg/kg/injection, schedule: Q04DX002 (ip), vehicle: saline with Tween-80.
Where [2] appears, read: endpoint: mean survival time, dose: 200.0 mg/kg/injection, schedule: Q04DX002 (ip), vehicle: saline with Tween-80.
Where [3] appears, read: endpoint: mean survival time, dose: 400.0 mg/kg/injection, schedule: Q04DX002 (ip), vehicle: saline with Tween-80.
Setting [4] is: endpoint: mean survival time, dose: 100.0 mg/kg/injection, schedule: Q01DX009 (ip), vehicle: saline with Tween-80.
Where [5] appears, read: endpoint: mean survival time, dose: 100.0 mg/kg/injection, schedule: Q04DX003 (ip), vehicle: saline with Tween-80.
Setting [6] is: endpoint: mean survival time, dose: 200.0 mg/kg/injection, schedule: Q01DX009 (ip), vehicle: saline with Tween-80.
The mark [7] stands for this setting: endpoint: mean survival time, dose: 200.0 mg/kg/injection, schedule: Q04DX003 (ip), vehicle: saline with Tween-80.
[8] abbreviates: endpoint: mean survival time, dose: 400.0 mg/kg/injection, schedule: Q01DX009 (ip), vehicle: saline with Tween-80.
Setting [9] is: endpoint: mean survival time, dose: 400.0 mg/kg/injection, schedule: Q04DX003 (ip), vehicle: saline with Tween-80.
Setting [10] is: endpoint: mean survival time, dose: 100.0 mg/kg/injection, schedule: Q01DX001 (ip), vehicle: saline with Tween-80.
[11] abbreviates: endpoint: mean survival time, dose: 200.0 mg/kg/injection, schedule: Q01DX001 (ip), vehicle: saline with Tween-80.

Consider `O=C1c2ccccc2C(=O)N1C(=S)N1C(=O)c2ccccc2C1=O`, for which the T/C was 96 % of control under setting [1], 92 % of control under setting [2] and 92 % of control under setting [3].

Turning to `CC(C)NC(=O)c1ccc(N/N=[N+](/C)[O-])cc1`, the T/C runs as follows: (endpoint: mean survival time, dose: 6.25 mg/kg/injection, schedule: Q01DX005 (ip), vehicle: saline with Tween-80) 98 % of control; (endpoint: mean survival time, dose: 12.5 mg/kg/injection, schedule: Q01DX005 (ip), vehicle: saline with Tween-80) 100 % of control; (endpoint: mean survival time, dose: 25.0 mg/kg/injection, schedule: Q01DX005 (ip), vehicle: saline with Tween-80) 107 % of control; (endpoint: mean survival time, dose: 50.0 mg/kg/injection, schedule: Q01DX005 (ip), vehicle: saline with Tween-80) 100 % of control; (endpoint: mean survival time, dose: 100.0 mg/kg/injection, schedule: Q01DX005 (ip), vehicle: saline with Tween-80) 109 % of control; under setting [4], 107 % of control. Besides, the T/C by setting is: under setting [5], 94 % of control; under setting [6], 110 % of control; under setting [7], 100 % of control; under setting [8], 117 % of control; under setting [9], 110 % of control.

With `CSC(=C[N+](=O)[O-])SC`, the T/C (endpoint: mean survival time, dose: 25.0 mg/kg/injection, schedule: Q01DX009 (ip), vehicle: Klucel (hydroxypropylcellulose) (HPC)) is 97 % of control and the T/C (endpoint: mean survival time, dose: 50.0 mg/kg/injection, schedule: Q01DX009 (ip), vehicle: Klucel (hydroxypropylcellulose) (HPC)) is 106 % of control.

As for `CC(NC1=C(Cl)C(=O)c2ccccc2C1=O)c1ccccc1` (configuration not stated), the T/C was 102 % of control (endpoint: mean survival time, dose: 25.0 mg/kg/injection, schedule: Q04DX003 (ip), vehicle: saline with Tween-80); 96 % of control (endpoint: mean survival time, dose: 50.0 mg/kg/injection, schedule: Q04DX003 (ip), vehicle: saline with Tween-80); 95 % of control under setting [5].

As to `O=C(Nc1ccccc1)OCC1CC2CCC1C2` (configuration not stated), the T/C under setting [4] is 87 % of control, the T/C under setting [6] is 93 % of control and the T/C under setting [8] was 95 % of control.

In the case of `CN1CC(=O)NC1=S`, under “endpoint: mean survival time, dose: 100.0 mg/kg/injection, schedule: Q01DX001 (ip), vehicle: saline”, the T/C is 87 % of control.

On to `O=C1OC(/C=C\c2ccccc2)=NC/1=C\c1cc(Br)cc(Br)c1O`, for which the T/C runs as follows: under setting [1], 94 % of control; under setting [2], 98 % of control; under setting [3], 105 % of control.

Turning to `COc1ccc(C2NN(C)C3(O)C(=O)N(C4CCCCC4)CC23)cc1` (configuration not stated), the T/C by setting is: under setting [10], 107 % of control; under setting [11], 94 % of control; (endpoint: mean survival time, dose: 400.0 mg/kg/injection, schedule: Q01DX001 (ip), vehicle: saline with Tween-80) 96 % of control.

For `O=C1C=C(N2CCCC2)c2ccccc21`, the T/C is, setting by setting: (endpoint: mean survival time, dose: 100.0 mg/kg/injection, schedule: Q04DX003 (ip), vehicle: Klucel (hydroxypropylcellulose) (HPC)) 106 % of control; (endpoint: mean survival time, dose: 200.0 mg/kg/injection, schedule: Q04DX003 (ip), vehicle: Klucel (hydroxypropylcellulose) (HPC)) 97 % of control; (endpoint: mean survival time, dose: 400.0 mg/kg/injection, schedule: Q04DX003 (ip), vehicle: Klucel (hydroxypropylcellulose) (HPC)) 95 % of control.

For `O=C(N/N=C/c1ccc(Cl)cc1)C(O)(c1ccccc1)c1ccccc1`, the T/C (endpoint: mean survival time, dose: 25.0 mg/kg/injection, schedule: Q01DX009 (ip), vehicle: saline with Tween-80) is 102 % of control; the T/C (endpoint: mean survival time, dose: 50.0 mg/kg/injection, schedule: Q01DX009 (ip), vehicle: saline with Tween-80) was 91 % of control; the T/C under setting [4] was 96 % of control.

With `CCCCCCCCCCCCCCCC(=O)N1CCCN(C(=O)CCCCCCCCCCCCCCC)C1`, the T/C is 89 % of control (endpoint: mean survival time, dose: 75.0 mg/kg/injection, schedule: Q04DX003 (ip), vehicle: saline); 89 % of control (endpoint: mean survival time, dose: 150.0 mg/kg/injection, schedule: Q04DX003 (ip), vehicle: saline); 103 % of control (endpoint: mean survival time, dose: 300.0 mg/kg/injection, schedule: Q04DX003 (ip), vehicle: saline).

Take `CC(C(=O)O)C(=O)O.[NH-]CC[NH-].[Pt+2]`: the T/C (endpoint: mean survival time, dose: 60.0 mg/kg/injection, schedule: Q04DX003 (ip), vehicle: water) is 116 % of control.

Turning to `CCCCCCCC(=O)Nc1ccc(C)c(C)c1`, the T/C runs as follows: under setting [4], 89 % of control; under setting [6], 91 % of control; under setting [8], 96 % of control.

Consider `CCCOC(=O)c1ccc(N2N=C(C)CCC2=O)cc1`, for which the T/C (endpoint: mean survival time, dose: 25.0 mg/kg/injection, schedule: Q04DX002 (ip), vehicle: saline with Tween-80) is 97 % of control; the T/C (endpoint: mean survival time, dose: 50.0 mg/kg/injection, schedule: Q04DX002 (ip), vehicle: saline with Tween-80) was 102 % of control; the T/C under setting [1] is 97 % of control.

Turning to `C=CCSc1ccccn1`, the T/C (endpoint: mean survival time, dose: 50.0 mg/kg/injection, schedule: Q01DX001 (ip), vehicle: carboxymethylcellulose (CMC)) is 94 % of control; the T/C (endpoint: mean survival time, dose: 100.0 mg/kg/injection, schedule: Q01DX001 (ip), vehicle: carboxymethylcellulose (CMC)) was 86 % of control; the T/C (endpoint: mean survival time, dose: 200.0 mg/kg/injection, schedule: Q01DX001 (ip), vehicle: carboxymethylcellulose (CMC)) is 88 % of control; the T/C (endpoint: mean survival time, dose: 400.0 mg/kg/injection, schedule: Q01DX001 (ip), vehicle: carboxymethylcellulose (CMC)) was 94 % of control.

Consider `CC1=CCC(O)(C(C)C)CC1` (configuration not stated), for which the T/C by setting is: (endpoint: mean survival time, dose: 100.0 mg/kg/injection, schedule: Q04DX003 (ip), vehicle: saline) 96 % of control; (endpoint: mean survival time, dose: 200.0 mg/kg/injection, schedule: Q04DX003 (ip), vehicle: saline) 98 % of control; (endpoint: mean survival time, dose: 400.0 mg/kg/injection, schedule: Q04DX003 (ip), vehicle: saline) 102 % of control.

In the case of `CC(=O)NC1=CC(=Nc2ccc(N(C)C)cc2)C=CC1=O`, the T/C is 95 % of control and 97 % of control (endpoint: mean survival time, dose: 1.25 mg/kg/injection, schedule: Q01DX009 (ip), vehicle: suspension in saline); 95 % of control and 103 % of control (endpoint: mean survival time, dose: 2.5 mg/kg/injection, schedule: Q01DX009 (ip), vehicle: suspension in saline); 97 % of control and 101 % of control (endpoint: mean survival time, dose: 5.0 mg/kg/injection, schedule: Q01DX009 (ip), vehicle: suspension in saline); 90 % of control and 97 % of control (endpoint: mean survival time, dose: 10.0 mg/kg/injection, schedule: Q01DX009 (ip), vehicle: suspension in saline).

`O=C(O)CC[P+](c1ccccc1)(c1ccccc1)c1ccccc1`: the T/C under setting [4] is 95 % of control, the T/C under setting [6] is 92 % of control and the T/C under setting [8] was 89 % of control.

Take `O=c1[nH]ncc2c(C3OC(CO)C(O)C3O)cnn12` (configuration not stated): the T/C reads like this: (endpoint: median survival time, dose: 4.75 mg/kg/injection, schedule: Q01DX005 (ip), vehicle: distilled water + Tween-80) 109 % of control; (endpoint: median survival time, dose: 9.5 mg/kg/injection, schedule: Q01DX005 (ip), vehicle: distilled water + Tween-80) 100 % of control; (endpoint: median survival time, dose: 19.0 mg/kg/injection, schedule: Q01DX005 (ip), vehicle: distilled water + Tween-80) 106 % of control; (endpoint: median survival time, dose: 38.0 mg/kg/injection, schedule: Q01DX005 (ip), vehicle: distilled water + Tween-80) 102 % of control; (endpoint: median survival time, dose: 76.0 mg/kg/injection, schedule: Q01DX005 (ip), vehicle: distilled water + Tween-80) 98 % of control.

`NC(=O)c1c(F)cccc1Cl`: the T/C is, setting by setting: under setting [4], 102 % of control; under setting [5], 101 % of control; under setting [6], 105 % of control; under setting [7], 98 % of control; under setting [8], 102 % of control; under setting [9], 106 % of control.

As to `Nc1nc(C=O)nc2c1ncn2C1OC(CO)C(O)C1O` (configuration not stated), the T/C reads like this: (endpoint: median survival time, dose: 25.0 mg/kg/injection, schedule: Q01DX005 (ip), vehicle: water) 101 % of control; (endpoint: median survival time, dose: 50.0 mg/kg/injection, schedule: Q01DX005 (ip), vehicle: water) 117 % of control; (endpoint: median survival time, dose: 100.0 mg/kg/injection, schedule: Q01DX005 (ip), vehicle: water) 117 % of control.

As for `CCCCCCCCCCCCCCCC(=O)Nc1ccn(C2OC(CO)C(O)C2O)c(=O)n1` (configuration not stated), the T/C was 213 % of control and 268 % of control (endpoint: mean survival time, dose: 12.5 mg/kg/injection, schedule: Q01DX009 (ip), vehicle: saline); 189 % of control and 270 % of control (endpoint: mean survival time, dose: 25.0 mg/kg/injection, schedule: Q01DX009 (ip), vehicle: saline); 225 % of control and 307 % of control (endpoint: mean survival time, dose: 50.0 mg/kg/injection, schedule: Q01DX009 (ip), vehicle: saline); 331 % of control (endpoint: mean survival time, dose: 50.0 mg/kg/injection, schedule: Q04DX002 (ip), vehicle: saline); 344 % of control and 345 % of control (endpoint: mean survival time, dose: 100.0 mg/kg/injection, schedule: Q04DX002 (ip), vehicle: saline); 95 % of control (endpoint: mean survival time, dose: 200.0 mg/kg/injection, schedule: Q01DX009 (ip), vehicle: saline). For the same compound, where the note is “endpoint: mean survival time, dose: 200.0 mg/kg/injection, schedule: Q04DX002 (ip), vehicle: saline”, the T/C was 198 % of control.

With `c1cc2c(c(N3CCNCC3)c1)CCCC2`, the T/C is, setting by setting: under setting [10], 110 % of control; under setting [11], 95 % of control.
